In brackets after ≈: the same amount, converted by molar mass. Where two headings read alike, the source gives them in different places.
Columns and labels:
L. monocytogenes [1] = conditions: cited from earlier work
listeriolysin O (LLO) = target: T1, listeriolysin O (LLO) (Listeria monocytogenes serovar 1/2a, UniProt P13128); experiment: Hemolysis assay of L. monocytogenes culture supernatants; format: cell-based
T1 construct: endogenous in cells; host or cells: L. monocytogenes EGDe wild-type strain BUG 1600
Protocol: Overnight cultures of EGDe were enlarged and cultured into fresh TSB (1:100) at 37°C for 2 h with shaking and then treated with various concentrations of phloretin until the optical density (OD) at 600 nm reached 2.0, at which point they were harvested (8000 g, 5 min). The bacterial culture supernatants were incubated with rabbit erythrocytes (final concentration of 2.5%) in PBS (35 mM Na3PO4, 125 mM NaCl, 0.5 mg/mL BSA, pH 5.5) at 37°C for 30 min, and then the hemolytic activity of each sample was determined by measuring the release of hemoglobin in supernatants at an OD of 543 nm after centrifugation (8000 g, 1 min).
To examine the direct effect of phloretin on hemolysis induced by bacterial culture supernatants, the hemolytic activities of bacterial culture supernatants pre-incubated with various concentrations of phloretin were determined as described above.

LLO = format: cell-based, Listeria monocytogenes
hly = experiment: Agar assay and β-galactosidase activity analysis (phly-lacZ); format: cell-based, Listeria monocytogenes; conditions: phly-lacZ-containing bacteria; agar assay 0–116.68 μM and β-galactosidase activity
Protocol: The phly-lacZ plasmid was a kind gift from Dr. Birgitte Kallipolitis (University of Southern Denmark) and was electroporated into EGDe cells to perform an agar assay as described previously (Kastbjerg et al., [2010]). A 25-ml aliquot of TSB agar was melted at 44°C and supplemented with X-gal (150 μg/ml) and kanamycin (50 μg/ml) before being thoroughly mixed with 1 ml of an overnight culture of bacteria containing the phly-lacZ plasmid. Nine wells were made per plate following desiccation in Class II biosafety cabinet at room temperature. A 30-μl aliquot of phloretin or benzalkonium bromide at varying concentrations was added to each well. The plates were incubated for 48 h at 37°C. The β-galactosidase activities of the phly-lacZ-containing bacteria treated with various concentrations of phloretin were quantitatively determined as previously described (Larsen et al., [2006]).

T90A = target: T2, T90A (Listeria monocytogenes serovar 1/2a, UniProt Q8Y8H5, T162A); experiment: Fluorescence-quenching binding constant (T90A); conditions: fluorescence-quenching spectroscopy, read-out: binding constant KA (converted)
T2 construct: GST (inferred from vector pGEX-6P-1) (N); made in house
Protocol: (§1) The binding constant (KA) for phloretin with SrtA was measured using a fluorescence-quenching method. A 280-nm excitation wavelength with a 5-nm band-pass and a 345-nm emission wavelength with a 10-nm band-pass were used for the measurements. The details of the protocol used to perform the measurements were as previously described (Bandyopadhyay et al., [2002]; Jurasekova et al., [2009]).

I103A = target: T3, I103A (Listeria monocytogenes serovar 1/2a, UniProt Q8Y8H5, I175A); experiment: Fluorescence-quenching binding constant (I103A); conditions: fluorescence-quenching spectroscopy, read-out: binding constant KA (converted)
T3 construct: GST (inferred from vector pGEX-6P-1) (N); made in house
Protocol: as §1

V129A = target: T4, V129A (Listeria monocytogenes serovar 1/2a, UniProt Q8Y8H5, V201A); experiment: Fluorescence-quenching binding constant (V129A); conditions: fluorescence-quenching spectroscopy, read-out: binding constant KA (converted)
T4 construct: GST (inferred from vector pGEX-6P-1) (N); made in house
Protocol: as §1

[2] = system: L. monocytogenes invasion into Caco-2 cells; experiment: L. monocytogenes invasion into Caco-2 cells (CFU assay, immunostaining); format: cell-based, Listeria monocytogenes; conditions: EGDeΔsrtA co-treated or pre-treated with phloretin; Caco-2, 1 h
Protocol: (§2) The Caco-2 cell line was maintained in RPMI-1640 medium with 10% fetal bovine serum, non-essential amino acids and antibiotics in a humidified atmosphere at 37°C with 5% CO2. The cells were routinely adjusted to a concentration of 3 × 10^5 cells per ml, seeded into 24-well plastic culture microplates (3 × 10^5 per microplate) and cultured for 48 h for immunostaining and the determination of intracellular bacterial growth. To assay LDH release, cell monolayers were incubated overnight in culture medium without antibiotics in 96-well plates (2 × 10^4 cells per well).
Caco-2 cells were co-cultured with L. monocytogenes at an MOI of 100. […] In each case, gentamicin (20 μg/ml) was added 30 min after bacterial internalization.
A 0.3% concentration of Triton X-100 was added to permeabilize the cells for 4 min prior to stain the total bacteria (intracellular + extracellular) with a rabbit L. monocytogenes-specific antibody (Abcam) and an Alexa Fluor 488-conjugated chicken anti-rabbit antibody (Molecular Probes).

[3] = system: L. monocytogenes-induced cytotoxicity in Caco-2 cells; experiment: LDH release assay of infected Caco-2 cells; format: cell-based, Listeria monocytogenes; conditions: all phloretin-treated groups vs infected untreated control; 5 h, MOI 100
Protocol: as §2
Caco-2 cells grown in 96-well microplates were infected with L. monocytogenes pre-exposed or not to phloretin at a multiplicity of infection (MOI) of 100. Following infections with discriminatory concentrations of phloretin for 5 h, the LDH released into the supernatants of the co-culture system was determined using a Cytotoxicity Detection Kit (LDH; Roche, Basel, Switzerland) as previously described (Wang et al., [2015a]).

Caco-2 cells = experiment: Cytotoxicity of phloretin in Caco-2 cells; format: cell-based; conditions: phloretin treatment alone
L. monocytogenes [4] = experiment: Mouse model of L. monocytogenes infection; format: in vivo, BALB/c mice
Protocol: Female 6- to 8-week-old BALB/c mice were purchased from Liao Ning Chang Sheng Biotechnology Co., LTD. The mice used for the experiments were housed and handled in accordance with the guidelines established by the United States National Institutes of Health. These studies were reviewed and approved by the Institutional Animal Care and Use Committee of Jilin University.
(§3) Overnight cultures of L. monocytogenes were enlarged by culturing into fresh TSB (1:100) at 37°C with shaking until the OD at 600 nm reached 1.0, at which point they were harvested. The cell pellets were washed and suspended in normal saline. To establish an infection model, 200 μL prepared bacterial suspension (1 × 10^8 CFU/ml) was intraperitoneally inoculated into BALB/c mice. The infected mice in the treatment group were subcutaneously administered 150 mg/kg of phloretin 2 h after infection and again at 8-h intervals. The infected mice in the […] group were injected with an equal volume of dimethyl sulfoxide (DMSO) at the same time points. Finally, a group of healthy mice received only phloretin to examine the toxicity of the drug. Each group had 10 mice, and the therapeutic trial lasted for 96 h; survival statistics were collected throughout this period.
(§4) For histopathologic analysis, the mice were euthanized with anesthesia following cervical dislocation at 48 h post-infection. Liver and spleen tissues were removed, fixed with formalin, embedded in paraffin, stained with hematoxylin and eosin and visualized by light microscopy. To analyze the bacterial burden in tissue, the liver and spleen tissues collected from the sacrificed mice were weighed, lysed in 2% Triton X-100 and inoculated onto TSB agar plates at 37°C overnight.

[5] = Toxicity of phloretin in healthy (uninfected) mice; format: in vivo, BALB/c mice
Protocol: as §3, §4

L. monocytogenes EGDe = experiment: Susceptibility assays (MIC, growth curve)
WT-SrtA [6] = target: T5, WT-SrtA (Listeria monocytogenes serovar 1/2a, UniProt Q8Y8H5); experiment: Sortase A enzyme activity inhibition assay (WT-SrtA)
Protocol: Following another incubation at 37°C for 1 h, the fluorescence intensity of each sample was determined at emission and excitation wavelengths of 350 and 520 nm, respectively, in a black 96-well plate.

WT-SrtA [7] = target: T5, WT-SrtA; experiment: Fluorescence-quenching binding constant (WT-SrtA); set-up: GST (inferred from vector pGEX-6P-1) (N); made in house
Protocol: as §1

T1 sequence (P13128 25-529): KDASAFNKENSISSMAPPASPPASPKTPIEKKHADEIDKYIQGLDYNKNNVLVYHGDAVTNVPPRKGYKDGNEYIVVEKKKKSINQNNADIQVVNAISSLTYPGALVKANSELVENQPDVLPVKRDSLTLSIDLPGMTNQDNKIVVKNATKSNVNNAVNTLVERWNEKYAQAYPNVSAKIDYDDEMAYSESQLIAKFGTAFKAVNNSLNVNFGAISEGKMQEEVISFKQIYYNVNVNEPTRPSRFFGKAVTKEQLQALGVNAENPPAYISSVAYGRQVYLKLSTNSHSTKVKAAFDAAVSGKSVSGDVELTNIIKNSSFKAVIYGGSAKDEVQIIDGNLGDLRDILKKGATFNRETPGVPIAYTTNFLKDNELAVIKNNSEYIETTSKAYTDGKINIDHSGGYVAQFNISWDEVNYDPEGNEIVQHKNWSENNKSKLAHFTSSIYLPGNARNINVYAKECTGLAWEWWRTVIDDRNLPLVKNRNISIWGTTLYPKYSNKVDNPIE
T5 sequence (Q8Y8H5 71-222): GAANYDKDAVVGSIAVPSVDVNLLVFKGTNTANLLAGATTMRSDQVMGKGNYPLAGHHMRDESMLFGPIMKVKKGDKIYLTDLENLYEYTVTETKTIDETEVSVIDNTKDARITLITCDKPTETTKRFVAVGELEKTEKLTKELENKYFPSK
T4 sequence (Q8Y8H5 71-222 V201A): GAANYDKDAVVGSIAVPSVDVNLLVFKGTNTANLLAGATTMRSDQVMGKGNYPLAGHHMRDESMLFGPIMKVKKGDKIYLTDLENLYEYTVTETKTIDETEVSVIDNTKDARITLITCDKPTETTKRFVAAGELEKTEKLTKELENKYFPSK
T3 sequence (Q8Y8H5 71-222 I175A): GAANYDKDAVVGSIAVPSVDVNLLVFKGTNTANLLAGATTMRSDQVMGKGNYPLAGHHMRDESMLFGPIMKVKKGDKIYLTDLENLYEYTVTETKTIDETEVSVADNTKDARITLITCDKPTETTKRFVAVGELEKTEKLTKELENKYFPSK
T2 sequence (Q8Y8H5 71-222 T162A): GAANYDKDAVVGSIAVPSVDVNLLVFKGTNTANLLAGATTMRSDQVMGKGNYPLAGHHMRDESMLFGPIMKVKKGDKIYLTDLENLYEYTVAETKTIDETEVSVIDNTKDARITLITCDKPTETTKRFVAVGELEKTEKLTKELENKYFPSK

## O=C(/C=C/c1ccccc1)c1ccccc1 [chalcone]
L. monocytogenes [1]; inhibitor of SrtA, ref Li et al., 2016
  protection against L. monocytogenes infection in vitro and in vivo: robust protection

## O=c1c(O)c(-c2ccc(O)c(O)c2)oc2cc(O)ccc12 [fisetin]
L. monocytogenes [1]; inhibitor of LLO, ref Wang et al., 2015a
  protection against L. monocytogenes infection in vitro and in vivo: robust protection

## O=C(CCc1ccc(O)cc1)c1c(O)cc(O)cc1O [phloretin]
Listeriolysin O (LLO); co-culture with phloretin 7.3–58.34 μM, rabbit erythrocytes
  hemolytic activities of culture supernatants of L. monocytogenes EGDe cells after co-culture: dose-dependently decreased
Listeriolysin O (LLO); supernatants pre-incubated with various concentrations of phloretin
  hemolytic activities of bacterial culture supernatants after direct pre-incubation: did not affect the hemolytic activities
LLO
  LLO levels in bacterial culture supernatants and cell pellets: reduced in a concentration-dependent manner
hly
  transcription of hly: did not affect the transcription of hly
T90A
  Kd: 17.5 µM
I103A
  Kd: 17.2 µM
V129A
  Kd: 20.1 µM
[2]
  invasion of EGDeΔsrtA (CFU assay): no difference was observed
[3]
  LDH release of EGDe-infected Caco-2 cells: decreased LDH release
Caco-2 cells
  cytotoxicity in Caco-2 cells: did not significantly induce cytotoxicity
L. monocytogenes [4]; 2 × 10^7 CFUs i.p. per mouse, phloretin 150 mg/kg s.c. 2 h after infection and at 8-h intervals
  infected mice that had died by 96 h post-infection: 25%
L. monocytogenes [4]; 48 h post-infection
  gross pathological changes in liver and spleen of infected mice: clearly ameliorated
L. monocytogenes [4]; 48 h post-infection, liver and spleen sections
  histopathology (inflammatory lesions) in infected mice: only minor inflammatory lesions
L. monocytogenes [4]; 48 h post-infection, vs infected mice treated with DMSO
  numbers of viable bacteria colonized in the livers and spleens: significantly lower
L. monocytogenes [4]; phloretin 150 mg/kg s.c., 96 h
  survival rate vs control group treated with DMSO: significantly higher survival rate
[5]; 150 mg/kg s.c. at 8-h intervals, 96 h
  survival of mice treated only with phloretin, not infected: all survived
[5]; liver and spleen
  pathological changes in uninfected mice treated with phloretin: no pathological changes were observed
L. monocytogenes EGDe; Listeria monocytogenes
  MIC: 933 µM (≈ 256 µg/mL)
L. monocytogenes EGDe; at the concentrations required for inhibition of LLO expression and SrtA catalytic activity, OD 600 nm
  growth of L. monocytogenes: not apparently affected
WT-SrtA [6]
  IC50: 37.2 µM
WT-SrtA [7]
  Kd: 12.6 µM

Source: paper PMC5244253, “Phloretin Attenuates Listeria monocytogenes Virulence Both In vitro and In vivo by Simultaneously Targeting Listeriolysin O and Sortase A” (Frontiers in Cellular and Infection Microbiology, 2017)
